From patent US12435044B2, “Pyridazinone herbicides and pyridazinone intermediates used to prepare a herbicide” (FMC Corporation, priority 2018, dated 2025)

Tests used:
Assay in all cases: Test I pre-/postemergence, mixtures of Cpd. No. 20 with saflufenacil or pyroxasulfone
Type in all cases: in vivo
[1] = test system: common ragweed (AMBEL; Ambrosia artemisiifolia); settings: for Plant response rating (0 to 100 scale): Preemergence, AMBEL
Source text: (§1) This test evaluated the effect of mixtures of Cpd. No. 20 with saflufenacil or pyroxasulfone on several plant species. Seeds of plant species selected from corn (ZEAMD; Zea mays, cv. ‘Pioneer 1184’), soybean (GLXMA; Glycine max, cv. Pioneer 35T58), giant foxtail (SETFA; Setaria faberi), palmer amaranth (AMAPA; Amaranthus palmeri), common waterhemp (AMATU; Amaranthus rudis), mare's tail (ERICA; Conyza canadensis), and common ragweed (AMBEL; Ambrosia artemisiifolia) were planted in pots containing Tama Silt Loam soil and treated preemergence with a directed soil spray using test chemicals formulated in a non-phytotoxic solvent mixture which included a surfactant.
(§2) At the same time, plants selected from these crop and weed species were planted in pots containing Redi-Earth® planting medium (Scotts Company, 14111 Scottslawn Road, Marysville, Ohio 43041) comprising spaghnum peat moss, vermiculite, wetting agent and starter nutrients and treated postemergence with test chemicals formulated in the same manner. Plants ranged in height from 2 to 10 cm and were in the one- to two-leaf stage for the postemergence treatment. Treated plants and untreated controls were maintained in a greenhouse for approximately 14-21 d, after which time all treated plants were compared to untreated controls and visually evaluated for injury. Plant response ratings, summarized in Tables 11 to 14, are based on a 0 to 100 scale where 0 is no effect and 100 is complete control. A dash (-) response means no test result. Test results are presented as a mean of 4 reps.

[2] = test system: common waterhemp (AMATU; Amaranthus rudis); settings: for Plant response rating (0 to 100 scale): Preemergence, AMATU
Source text: as §1, §2

[3] = test system: corn (ZEAMD; Zea mays, cv. ‘Pioneer 1184’); settings: for Plant response rating (0 to 100 scale): Preemergence, ZEAMD
Source text: as §1, §2

[4] = test system: giant foxtail (SETFA; Setaria faberi); settings: for Plant response rating (0 to 100 scale): Preemergence, SETFA
Source text: as §1, §2

[5] = test system: mare's tail (ERICA; Conyza canadensis); settings: for Plant response rating (0 to 100 scale): Preemergence, ERICA
Source text: as §1, §2

[6] = test system: palmer amaranth (AMAPA; Amaranthus palmeri); settings: for Plant response rating (0 to 100 scale): Preemergence, AMAPA
Source text: as §1, §2

[7] = test system: soybean (GLXMA; Glycine max, cv. Pioneer 35T58); settings: for Plant response rating (0 to 100 scale): Preemergence, GLXMA
Source text: as §1, §2

| SMILES | AMBEL plant response rating, 0 to 100 scale ([1]; postemergence, 4 g a.i./ha) | AMBEL plant response rating, 0 to 100 scale ([1]; postemergence, 8 g a.i./ha) | AMATU plant response rating, 0 to 100 scale ([2]; postemergence, 4 g a.i./ha) | AMATU plant response rating, 0 to 100 scale ([2]; postemergence, 8 g a.i./ha) | ZEAMD plant response rating, 0 to 100 scale ([3]; postemergence, 4 g a.i./ha) | ZEAMD plant response rating, 0 to 100 scale ([3]; postemergence, 8 g a.i./ha) | SETFA plant response rating, 0 to 100 scale ([4]; postemergence, 4 g a.i./ha) | SETFA plant response rating, 0 to 100 scale ([4]; postemergence, 8 g a.i./ha) | ERICA plant response rating, 0 to 100 scale ([5]; postemergence, 4 g a.i./ha) | ERICA plant response rating, 0 to 100 scale ([5]; postemergence, 8 g a.i./ha) | AMAPA plant response rating, 0 to 100 scale ([6]; postemergence, 4 g a.i./ha) | AMAPA plant response rating, 0 to 100 scale ([6]; postemergence, 8 g a.i./ha) | GLXMA plant response rating, 0 to 100 scale ([7]; postemergence, 4 g a.i./ha) | GLXMA plant response rating, 0 to 100 scale ([7]; postemergence, 8 g a.i./ha) | also measured |
| --- | --- | --- | --- | --- | --- | --- | --- | --- | --- | --- | --- | --- | --- | --- | --- |
| CC(C)N(C)S(=O)(=O)NC(=O)c1cc(-n2c(=O)cc(C(F)(F)F)n(C)c2=O)c(F)cc1Cl [Saflufenacil, saflufenacil, reference compound] | 100 | 100 | 85 | 90 | 15 | 70 | 23 | 55 | 95 | 100 | 84 | 70 | 74 | 91 | Plant response rating (0 to 100 scale) ([1]; Saflufenacil 4 g a.i./ha alone): 96; Plant response rating (0 to 100 scale) ([1]; Saflufenacil 8 g a.i./ha alone): 100; Plant response rating (0 to 100 scale) ([2]; Saflufenacil 4 g a.i./ha alone): 55; Plant response rating (0 to 100 scale) ([2]; Saflufenacil 8 g a.i./ha alone): 84; Plant response rating (0 to 100 scale) ([3]; Saflufenacil 4 g a.i./ha alone): 0; Plant response rating (0 to 100 scale) ([3]; Saflufenacil 8 g a.i./ha alone): 0; Plant response rating (0 to 100 scale) ([4]; Saflufenacil 4 g a.i./ha alone): 0; Plant response rating (0 to 100 scale) ([4]; Saflufenacil 8 g a.i./ha alone): 0; Plant response rating (0 to 100 scale) ([5]; Saflufenacil 4 g a.i./ha alone): 94; Plant response rating (0 to 100 scale) ([5]; Saflufenacil 8 g a.i./ha alone): 100; Plant response rating (0 to 100 scale) ([6]; Saflufenacil 4 g a.i./ha alone): 35; Plant response rating (0 to 100 scale) ([6]; Saflufenacil 8 g a.i./ha alone): 88; Plant response rating (0 to 100 scale) ([7]; Saflufenacil 4 g a.i./ha alone): 0; Plant response rating (0 to 100 scale) ([7]; Saflufenacil 8 g a.i./ha alone): 0 |
| Cn1nc(C(F)(F)F)c(CS(=O)(=O)C2=NOC(C)(C)C2)c1OC(F)F [Pyroxasulfone, pyroxasulfone, reference compound] | 0 | 24 | 0 | 0 | 0 | 0 | 0 | 6 | 0 | 0 | 15 | 0 | 0 | 15 | AMBEL plant response rating, 0 to 100 scale ([1]; preemergence, 4 g a.i./ha): 0; AMBEL plant response rating, 0 to 100 scale ([1]; preemergence, 8 g a.i./ha): 0; AMATU plant response rating, 0 to 100 scale ([2]; preemergence, 4 g a.i./ha): 5; AMATU plant response rating, 0 to 100 scale ([2]; preemergence, 8 g a.i./ha): 45; ZEAMD plant response rating, 0 to 100 scale ([3]; preemergence, 4 g a.i./ha): 0; ZEAMD plant response rating, 0 to 100 scale ([3]; preemergence, 8 g a.i./ha): 0; SETFA plant response rating, 0 to 100 scale ([4]; preemergence, 4 g a.i./ha): 76; SETFA plant response rating, 0 to 100 scale ([4]; preemergence, 8 g a.i./ha): 98; ERICA plant response rating, 0 to 100 scale ([5]; preemergence, 4 g a.i./ha): 79; ERICA plant response rating, 0 to 100 scale ([5]; preemergence, 8 g a.i./ha): 100; AMAPA plant response rating, 0 to 100 scale ([6]; preemergence, 4 g a.i./ha): 0; AMAPA plant response rating, 0 to 100 scale ([6]; preemergence, 8 g a.i./ha): 38; GLXMA plant response rating, 0 to 100 scale ([7]; preemergence, 4 g a.i./ha): 0; GLXMA plant response rating, 0 to 100 scale ([7]; preemergence, 8 g a.i./ha): 0 |
